Assay results reported in patent publication US20230172940A1, “METHODS OF EXTENDING LIFESPAN BY ADMINISTERING FERROPTOSIS INHIBITORS” (COLLABORATIVE MEDICINAL DEVELOPMENT, LLC, priority 2020, published 2023).
Counter-ions that a name gives are not always drawn.

Key:
C. elegans [1] = settings: DEM at 10-100 μM, minor glutathione loss; cited from earlier work
C. elegans [2] = experiment: Antibiotic tests: lifespan with ampicillin co-administration; assay type: in vivo, Caenorhabditis elegans
Experimental: To determine whether the increased lifespan seen with SIH treatment could be explained solely by an antibiotic effect of iron reduction, nematodes were treated with ampicillin, with and without SIH co-administration. Even in the presence of ampicillin, SIH increased median lifespan by 6 days, similar to its benefits in the absence of ampicillin (median increase of 7 days).

C. elegans [3] = experiment: Temporal rescaling by temperature: lifespan at 20° C. and 25° C.; assay type: in vivo, Caenorhabditis elegans
Experimental: The effect of temperature is evaluated separately for control and SIH treated worms, population sizes for each replicate are shown in Table 20.
For each of two replicates and treatment factors, the AFT model with Weibull baseline hazard was fitted with temperature as the covariate. The residuals from this model were then subjected to the K-S test.
For both populations, being exposed to the higher temperature of 25° C. accelerates life as expected, by approximately 30% for control worms (Otemp=0.72 (95% Cl: 0.68; 0.77) and 20% for SIH worms (Otemp=0.81 (95% Cl: 0.78; 0.84).

C. elegans iron-proteome = experiment: Size exclusion chromatography-ICP-MS of soluble iron; assay type: in vivo, Caenorhabditis elegans; settings: aged C. elegans (10 days post adulthood)
Experimental: Liquid chromatography was performed using established protocols. Briefly^o samples of aged C. elegans were lysed using a Bioruptor Next Gen (Diagenode) bath sonicator set on HIGH and cooled to 4° C. using 10 cycles of 10 sec ON and 10 sec OFF^o in a 1:1 volume ratio of Tris-buffered saline (pH 8.0) with added proteinase inhibitors (EDTA-free; Roche). Sample homogenization was confirmed by microscopic inspection. Lysates were then centrifuged for 15 min at 175^o000 g at 4° C. The supernatant was removed and total protein concentration in the soluble fraction was determined using a NanoDrop UV spectrometer (Thermo Fisher Scientific) before being transferred to standard chromatography vials with polypropylene inserts (Agilent Technologies) and kept at 4° C. on a Peltier cooler for analysis. Size exclusion chromatography-inductively coupled plasma-mass spectrometry was performed using an Agilent Technologies 1100 Series liquid chromatography system with a BioSEC 5 SEC column (5 μm particle size^o 300 Å pore size^o I.D. 4.6 mm^o Agilent Technologies) and 7700× Series ICP-MS as previously described (Hare et al.^o 2016b). A buffer of 200 mM NH4NO3 was used for all separations at a flow rate of 0.4 mL min^−1. A total of 50 μg of soluble protein was loaded onto the column by manually adjusting the injection volume for each sample. Mass-to-charge ratios (m/z) for phosphorus (31) and iron (56) were monitored in time resolved analysis mode. Plots of the mean (±standard deviation) of three independent biological replicates are shown. Integration of the three major peaks was performed using Prism (ver. 7 for Mac OS X, Graphpad).

SMILES | effect on lifespan as reported (C. elegans [1]) | lifespan extension on co-administration (C. elegans [2]; SIH and the antibiotic ampicillin co-administered) | increase of median lifespan (C. elegans [2]; SIH in the absence of ampicillin) | increase of median lifespan (C. elegans [2]; SIH in the presence of ampicillin) | lifespan extension at two temperatures (C. elegans [3]) | Ferritin-bound iron, normalized peak area (C. elegans iron-proteome) | iron associated with the LMW peak, normalized peak area (C. elegans iron-proteome) | iron bound within HMW species (C. elegans iron-proteome)
CCOC(=O)/C=C\C(=O)OCC [DEM, Diethyl maleate] | increasing lifespan via hormesis |  |  |  |  |  |  | 
O=C(N/N=C/c1ccccc1O)c1ccncc1 [SIH, Salicylaldehyde isonicotinoyl hydrazone] |  | additive effect on media lifespan extension | 7 days | 6 days | still extended lifespan by a similar dimension | approximately 50% | approximately 40% | unaffected
